Measurements taken from patent publication US20200179428A1, “CYCLIC PHOSPHATE SUBSTITUTED NUCLEOSIDE DERIVATIVES AND METHODS OF USE THEREOF FOR THE TREATMENT OF VIRAL DISEASES” (priority 2016, published 2020).
Where two headings read alike, the source gives them in different places.

Columns and labels:
replicon cells (1b-Con1) = test: Replicon activity assay (replicon RNA level by real-time RT-PCR, Taqman); type: cell-based; details: HCV replicon genotype 1b, read-out: EC50 (1b) Range
Method: (§1) To measure cell-based anti-HCV activity of the compounds of the present invention, replicon cells (1b-Con1) are seeded at 5000 cells/well in 96-well plates one day prior to treatment with a compound of the invention. Various concentrations of a test compound of the invention in DMSO are then added to the replicon cells, with the final concentration of DMSO at 0.5% and fetal bovine serum at 10% in the assay media. Cells are harvested three days post-dosing, and the replicon RNA level is determined using real-time RT-PCR (Taqman assay) with GAPDH RNA as endogenous control. EC50 values are calculated from experiments with 10 serial twofold dilutions of the inhibitor in triplicate. To measure cytotoxicity in replicon cells of an inhibitor, an MTS assay is performed according to the manufacturer's protocol for CellTiter 96 Aqueous One Solution Cell Proliferation Assay (Promega, Cat # G3580) three days post dosing on cells treated identically as in replicon activity assays. […] Cytotoxicity in other types of cells may be measured using the same MTS protocol.

[1] = Cytotoxicity MTS assay (CellTiter 96 Aqueous One Solution) in replicon cells; type: cell-based; details: EDU, read-out: CC50 (EDU) Range; for CC50 at 3 days: HCV replicon cells (1b-Con1)
Method: as §1

| Structure (SMILES) | EC50 (replicon cells (1b-Con1); Hepatitis C virus) | CC50 at 3 days [1] | CC50 [1] | EC50 (replicon cells (1b-Con1)) |
| --- | --- | --- | --- | --- |
| C#C[C@]1(C)[C@@H]2O[P@](=O)(OCC[C@@H](OC(C)=O)C(=O)OC(C)C)OC[C@H]2O[C@H]1n1ccc(=O)[nH]c1=O [Compound 50B] | 0.25 to 1 µM | > 50 µM | – | – |
| C#C[C@]1(C)[C@@H]2O[P@@](=O)(OCCC(CO)C(=O)OC(C)C)OC[C@H]2O[C@H]1n1ccc(=O)[nH]c1=O (some centres unmarked) [Compound 44A] | > 10 µM | > 50 µM | – | – |
| CC(C)OC(=O)CC(C)(C)CO[P@@]1(=O)OC[C@H]2O[C@@H](n3ccc(=O)[nH]c3=O)[C@](C)(N)[C@@H]2O1 [Compound 17A] | > 10 µM | > 50 µM | – | – |
| C#C[C@]1(C)[C@@H]2O[P@@](=O)(OC[C@@H](F)CC(=O)OC(C)C)OC[C@H]2O[C@H]1n1ccc(=O)[nH]c1=O [Compound 64A] | 0.25 to 1 µM | > 50 µM | – | – |
| C[C@@]1(N)[C@@H]2OP(=O)(OCCC3(C(=O)OC4CCCC4)CCC3)OC[C@H]2O[C@H]1n1ccc(=O)[nH]c1=O (some centres unmarked) [Compound 29A] | > 10 µM | > 50 µM | – | – |
| C#C[C@@]1(O)[C@@H]2O[P@@](=O)(OCCC(C(=O)OC(C)C)C(=O)OC(C)C)OC[C@H]2O[C@H]1n1ccc(=O)[nH]c1=O [Compound 59A] | 0.25 to 1 µM | > 50 µM | – | – |
| CO[C@@H](CO[P@@]1(=O)OC[C@H]2O[C@@H](n3ccc(=O)[nH]c3=O)[C@](C)(N)[C@@H]2O1)CC(=O)OC(C)C [Compound 63A] | > 10 µM | > 50 µM | – | – |
| C#C[C@]1(C)[C@@H]2O[P@@](=O)(OCCC(C)C(=O)OC3CCCCC3)OC[C@H]2O[C@H]1n1ccc(=O)[nH]c1=O (some centres unmarked) [Compound 77A] | 1 to 10 µM | > 50 µM | – | – |
| C#C[C@]1(C)[C@@H]2OP(=O)(OCC(C)CC(=O)OC(C)C)OC[C@H]2O[C@H]1n1ccc(=O)[nH]c1=O (some centres unmarked) [Compound 6B] | 1 to 10 µM | > 50 µM | – | – |
| CC(C)OC(=O)C(C)CCOP1(=O)OC[C@H]2O[C@@H](n3ccc(=O)[nH]c3=O)[C@](C)(Cl)[C@@H]2O1 (some centres unmarked) [Compound 39A] | ≤ 0.25 µM | > 50 µM | – | – |
| CC(C)OC(=O)C(CCO[P@]1(=O)OC[C@H]2O[C@@H](n3ccc(=O)[nH]c3=O)[C@](C)(N)[C@@H]2O1)c1ccccc1 (some centres unmarked) [Compound 33B] | > 10 µM | > 50 µM | – | – |
| CC(C)OC(=O)C1CC1CO[P@]1(=O)OC[C@H]2O[C@@H](n3ccc(=O)[nH]c3=O)[C@](C)(N)[C@@H]2O1 (some centres unmarked) [Compound 47B] | > 10 µM | > 50 µM | – | – |
| C#C[C@]1(C)[C@@H]2O[P@](=O)(OCC(C)CCC(=O)OC(C)C)OC[C@H]2O[C@H]1n1ccc(=O)[nH]c1=O (some centres unmarked) [Compound 22B] | > 10 µM | > 50 µM | – | – |
| CC(C)OC(=O)C(C)CCOP1(=O)OC[C@H]2O[C@@H](n3cnc4c(N)ncnc43)[C@](C)(Cl)[C@@H]2O1 (some centres unmarked) [Compound 35A] | ≤ 0.25 µM | > 50 µM | – | – |
| CC(C)OC(=O)COCCO[P@@]1(=O)OC[C@H]2O[C@@H](n3ccc(=O)[nH]c3=O)[C@](C)(N)[C@@H]2O1 [Compound 69A] | > 10 µM | > 50 µM | – | – |
| C#C[C@]1(C)[C@@H]2O[P@](=O)(OCCC(CC)C(=O)OC(C)C)OC[C@H]2O[C@H]1n1ccc(=O)[nH]c1=O (some centres unmarked) [Compound 31B] | > 10 µM | > 50 µM | – | – |
| CC(C)OC(=O)[C@@H](C)CCO[P@]1(=O)OC[C@H]2O[C@@H](n3cnc4c(N)ncnc43)[C@](C)(C#N)[C@@H]2O1 [Compound 71B] | 1 to 10 µM | > 50 µM | – | – |
| CO[C@H](CCO[P@]1(=O)OC[C@H]2O[C@@H](n3ccc(=O)[nH]c3=O)[C@](C)(N)[C@@H]2O1)C(=O)OC(C)C [Compound 45B] | > 10 µM | > 50 µM | – | – |
| C#C[C@]1(C)[C@@H]2O[P@@](=O)(OCC[C@@H](OC)C(=O)OC(C)C)OC[C@H]2O[C@H]1n1ccc(=O)[nH]c1=O [Compound 57A] | 1 to 10 µM | > 50 µM | – | – |
| C#C[C@@]1(O)[C@@H]2OP(=O)(OCCC(C)C(=O)OC(C)C)OC[C@H]2O[C@H]1n1ccc(=O)[nH]c1=O (some centres unmarked) [Compound 7A] | 0.25 to 1 µM | – | > 50 µM | – |
| CC(C)OC(=O)C(C)CCCO[P@@]1(=O)OC[C@H]2O[C@@H](n3ccc(=O)[nH]c3=O)[C@](C)(N)[C@@H]2O1 (some centres unmarked) [Compound 34A] | > 10 µM | > 50 µM | – | – |
| CC(CCO[P@]1(=O)OC[C@H]2O[C@@H](n3ccc(=O)[nH]c3=O)[C@](C)(N)[C@@H]2O1)C(=O)OC1CCCCC1 (some centres unmarked) [Compound 78B] | 1 to 10 µM | > 50 µM | – | – |
| C#C[C@]1(C)[C@@H]2OP(=O)(OCC(C)CC(=O)OC(C)C)OC[C@H]2O[C@H]1n1ccc(=O)[nH]c1=O (single isomer, unassigned) [Compound 6A] | – | > 50 µM | – | 1 to 10 µM |
| C#C[C@]1(C)[C@@H]2O[P@](=O)(OCC[C@@H](OC)C(=O)OC(C)C)OC[C@H]2O[C@H]1n1ccc(=O)[nH]c1=O [Compound 57B] | 1 to 10 µM | > 50 µM | – | – |

| Structure (SMILES) | EC50 (replicon cells (1b-Con1); Hepatitis C virus) | CC50 at 3 days [1] | CC50 [1] | EC50 (replicon cells (1b-Con1)) |
| --- | --- | --- | --- | --- |
| CO[C@H](CO[P@@]1(=O)OC[C@H]2O[C@@H](n3ccc(=O)[nH]c3=O)[C@](C)(N)[C@@H]2O1)[C@@H](OC)C(=O)OC(C)C [Compound 48A] | > 10 µM | > 50 µM | – | – |
| CC(C)OC(=O)[C@H](C)CCO[P@@]1(=O)OC[C@H]2O[C@@H](n3cc(F)c4c(N)ncnc43)[C@](C)(Cl)[C@@H]2O1 [Compound 81A] | > 10 µM | – | – | – |
| CC(=O)O[C@H](C(=O)OC(C)C)[C@@H](COP1(=O)OC[C@H]2O[C@@H](n3ccc(=O)[nH]c3=O)[C@](C)(N)[C@@H]2O1)OC(C)=O (some centres unmarked) [Compound 53B] | > 10 µM | > 50 µM | – | – |
| CC(C)OC(=O)CC(F)(F)CO[P@]1(=O)OC[C@H]2O[C@@H](n3ccc(=O)[nH]c3=O)[C@](C)(N)[C@@H]2O1 [Compound 49B] | 1 to 10 µM | < 50 µM | – | – |
| COC(=O)N[C@@H](CCO[P@]1(=O)OC[C@H]2O[C@@H](n3ccc(=O)[nH]c3=O)[C@](C)(N)[C@@H]2O1)C(=O)OC(C)C [Compound 42B] | > 10 µM | > 50 µM | – | – |
| C#C[C@@]1(O)[C@@H]2OP(=O)(OCC[C@@H](OC)C(=O)OC(C)C)OC[C@H]2O[C@H]1n1ccc(=O)[nH]c1=O (some centres unmarked) [Compound 76] | ≤ 0.25 µM | > 50 µM | – | – |
| C#C[C@@]1(O)[C@@H]2OP(=O)(OCCC(C)C(=O)OC3CCCC3)OC[C@H]2O[C@H]1n1ccc(=O)[nH]c1=O (single isomer, unassigned) [Compound 8A] | 0.25 to 1 µM | > 50 µM | – | – |
| CC(=O)O[C@H](CO[P@@]1(=O)OC[C@H]2O[C@@H](n3ccc(=O)[nH]c3=O)[C@](C)(N)[C@@H]2O1)CC(=O)OC(C)C [Compound 52A] | > 10 µM | – | – | – |
| CC(C)OC(=O)C(CCO[P@]1(=O)OC[C@H]2O[C@@H](n3cnc4c(N)ncnc43)[C@](C)(Cl)[C@@H]2O1)C(=O)OC(C)C [Compound 70B] | 1 to 10 µM | > 50 µM | – | – |
| C#C[C@]1(C)[C@@H]2O[P@@](=O)(OCC[C@H](OC(C)=O)C(=O)OC(C)C)OC[C@H]2O[C@H]1n1ccc(=O)[nH]c1=O [Compound 51A] | 1 to 10 µM | > 50 µM | – | – |
| C[C@@]1(N)[C@@H]2O[P@@](=O)(OCCC3(C(=O)OC4CCCC4)CC3)OC[C@H]2O[C@H]1n1ccc(=O)[nH]c1=O [Compound 26A] | > 10 µM | > 50 µM | – | – |
| CCC(CCO[P@]1(=O)OC[C@H]2O[C@@H](n3ccc(=O)[nH]c3=O)[C@](C)(N)[C@@H]2O1)C(=O)OC1CCCC1 (some centres unmarked) [Compound 25B] | > 10 µM | – | – | – |
| CC(=O)O[C@H](C(=O)OC(C)C)[C@@H](CO[P@@]1(=O)OC[C@H]2O[C@@H](n3ccc(=O)[nH]c3=O)[C@](C)(N)[C@@H]2O1)OC(C)=O [Compound 53A] | > 10 µM | – | – | – |
| CC(C)OC(=O)[C@@H](C)CCO[P@@]1(=O)OC[C@H]2O[C@@H](n3ccc4c(N)ncnc43)[C@](C)(Cl)[C@@H]2O1 [Compound 80A] | > 10 µM | – | – | – |
| C#C[C@]1(C)[C@@H]2O[P@](=O)(OC[C@H](CC(=O)OC(C)C)OC(C)=O)OC[C@H]2O[C@H]1n1ccc(=O)[nH]c1=O [Compound 55B] | > 10 µM | – | – | – |
| CC(C)OC(=O)[C@@H](C)CCO[P@@]1(=O)OC[C@H]2O[C@@H](n3cc(F)c4c(N)ncnc43)[C@](C)(Cl)[C@@H]2O1 [Compound 82A] | > 10 µM | – | – | – |
| CC(=O)O[C@H](CO[P@]1(=O)OC[C@H]2O[C@@H](n3ccc(=O)[nH]c3=O)[C@](C)(N)[C@@H]2O1)CC(=O)OC(C)C [Compound 52B] | > 10 µM | – | – | – |
| CCC(CCO[P@@]1(=O)OC[C@H]2O[C@@H](n3ccc(=O)[nH]c3=O)[C@](C)(N)[C@@H]2O1)C(=O)OC1CCCC1 (some centres unmarked) [Compound 25A] | > 10 µM | – | – | – |
| CC(C)OC(=O)[C@@H](C)CCO[P@]1(=O)OC[C@H]2O[C@@H](n3ccc4c(N)ncnc43)[C@](C)(Cl)[C@@H]2O1 [Compound 80B] | 1 to 10 µM | – | – | – |
| CC(C)OC(=O)[C@H](C)CCO[P@]1(=O)OC[C@H]2O[C@@H](n3cc(F)c4c(N)ncnc43)[C@](C)(Cl)[C@@H]2O1 [Compound 82B] | – | – | – | > 10 µM |
| CC(C)OC(=O)[C@H](C)CCOP1(=O)OC[C@@]2(F)O[C@@H](n3ccc(=O)[nH]c3=O)[C@](C)(F)[C@@H]2O1 (some centres unmarked) [Compound 87A] | ≤ 0.25 µM | – | – | – |
| C#C[C@]1(C)[C@@H]2O[P@@](=O)(OC[C@H](CC(=O)OC(C)C)OC(C)=O)OC[C@H]2O[C@H]1n1ccc(=O)[nH]c1=O [Compound 55A] | > 10 µM | – | – | – |
| CC(C)OC(=O)[C@H](C)CCO[P@]1(=O)OC[C@H]2O[C@@H](n3cc(F)c4c(N)ncnc43)[C@](C)(Cl)[C@@H]2O1 [Compound 81B] | > 10 µM | – | – | – |
